# Test results published in ChEMBL document CHEMBL4814073, “Ring-opening of five-membered heterocycles conjugated 4-isopropylresorcinol scaffold-based benzamides as HSP90 inhibitors suppressing tumor growth in vitro and in vivo” (Eur J Med Chem, 2021).
# Calls of active or inactive are those of the source. No cut-off for these calls is given here.
# Tests used:
# Heat shock protein HSP90 = Heat shock protein HSP90 (Homo sapiens, UniProt P07900+P08238); test: Inhibition of HSP90 in human A549 cells assessed as downregulation of Src expression incubated for 24 hrs by immunoblot analysis; assay type: cell-based; settings: dose microM <=3, time 24.0 hrs
# [1] = Clearance in Sprague-Dawley rat at 2 mg/kg, iv measured after 1 hrs by LC-MS/MS analysis; assay type: ADME, organism-based; settings: in vivo
# [2] = AUC (0 to t) in Sprague-Dawley rat at 20 mg/kg, po measured after 1 hrs by LC-MS/MS analysis; assay type: ADME, organism-based; design: route oral, time 1 hrs, dose 20 mg/kg; settings: in vivo
# Cytochrome P450 2D6 = Cytochrome P450 2D6 (Homo sapiens, UniProt P10635); test: Inhibition of CYP2D6 in human liver microsomes using dextromethorphan as substrate by LC-MS/MS analysis; assay type: ADME
# [3] = AUC (0 to infinity) in Sprague-Dawley rat at 2 mg/kg, iv measured after 1 hrs by LC-MS/MS analysis; assay type: ADME, organism-based; design: route intravenous, dose 2 mg/kg, time 1 hrs; settings: in vivo
# hERG (KCNH2) = hERG (KCNH2) (Homo sapiens, UniProt Q12809); test: Inhibition of human ERG stably expressed in HEK293 cells at 10 uM measured after 60 mins by [3H]]Astemizole binding assay; assay type: cell-based; settings: HEK293 cells stably expressing hERG, probe [3H]astemizole
# CYP2C8 = target: T1, CYP2C8 (Homo sapiens, UniProt P10632); test: Inhibition of CYP2C8 in human liver microsomes using amodiaquine as substrate at 50 uM by LC-MS/MS analysis; assay type: ADME; settings: probe amodiaquine
# T1 sequence (P10632 whole entry): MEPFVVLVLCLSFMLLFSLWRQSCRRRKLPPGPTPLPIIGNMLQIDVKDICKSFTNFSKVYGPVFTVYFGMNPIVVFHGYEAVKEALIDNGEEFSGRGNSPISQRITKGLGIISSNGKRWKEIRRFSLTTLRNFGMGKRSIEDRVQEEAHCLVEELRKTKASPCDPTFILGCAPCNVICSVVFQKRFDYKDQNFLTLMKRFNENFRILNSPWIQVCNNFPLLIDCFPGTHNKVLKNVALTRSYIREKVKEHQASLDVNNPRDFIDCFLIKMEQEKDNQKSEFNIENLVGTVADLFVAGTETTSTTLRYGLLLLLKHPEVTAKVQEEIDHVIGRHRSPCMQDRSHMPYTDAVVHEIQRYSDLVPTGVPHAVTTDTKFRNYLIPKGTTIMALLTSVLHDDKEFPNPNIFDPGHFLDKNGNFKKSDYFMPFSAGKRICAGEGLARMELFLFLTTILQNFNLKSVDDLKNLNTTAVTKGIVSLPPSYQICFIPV
# [4] = AUC (0 to t) in Sprague-Dawley rat at 2 mg/kg, iv measured after 1 hrs by LC-MS/MS analysis; assay type: ADME, organism-based; design: route intravenous, time 1 hrs, dose 2 mg/kg; settings: in vivo
# A549 = test: Induction of apoptosis in human A549 cells assessed as increase in cleaved caspase 7 protein expression at 0.3 to 3 uM measured after 18 hrs by western blot analysis; assay type: functional, cell-based; settings: dose 0.3-3 µM
# Cytochrome P450 2D6, sequence (P10635 whole entry): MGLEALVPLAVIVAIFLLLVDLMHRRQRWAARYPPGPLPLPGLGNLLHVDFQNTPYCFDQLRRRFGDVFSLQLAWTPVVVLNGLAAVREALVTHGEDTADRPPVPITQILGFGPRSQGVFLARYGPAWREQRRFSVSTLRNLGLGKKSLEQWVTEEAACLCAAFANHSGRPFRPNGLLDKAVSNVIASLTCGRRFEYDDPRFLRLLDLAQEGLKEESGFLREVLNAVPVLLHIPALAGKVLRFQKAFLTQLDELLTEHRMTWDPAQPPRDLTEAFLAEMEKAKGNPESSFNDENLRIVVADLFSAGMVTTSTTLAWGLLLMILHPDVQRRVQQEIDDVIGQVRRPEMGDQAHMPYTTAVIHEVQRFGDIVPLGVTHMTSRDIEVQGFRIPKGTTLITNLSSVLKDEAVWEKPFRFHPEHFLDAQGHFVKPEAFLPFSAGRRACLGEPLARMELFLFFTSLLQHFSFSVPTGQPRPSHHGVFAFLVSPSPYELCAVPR
# hERG (KCNH2), sequence (Q12809 whole entry): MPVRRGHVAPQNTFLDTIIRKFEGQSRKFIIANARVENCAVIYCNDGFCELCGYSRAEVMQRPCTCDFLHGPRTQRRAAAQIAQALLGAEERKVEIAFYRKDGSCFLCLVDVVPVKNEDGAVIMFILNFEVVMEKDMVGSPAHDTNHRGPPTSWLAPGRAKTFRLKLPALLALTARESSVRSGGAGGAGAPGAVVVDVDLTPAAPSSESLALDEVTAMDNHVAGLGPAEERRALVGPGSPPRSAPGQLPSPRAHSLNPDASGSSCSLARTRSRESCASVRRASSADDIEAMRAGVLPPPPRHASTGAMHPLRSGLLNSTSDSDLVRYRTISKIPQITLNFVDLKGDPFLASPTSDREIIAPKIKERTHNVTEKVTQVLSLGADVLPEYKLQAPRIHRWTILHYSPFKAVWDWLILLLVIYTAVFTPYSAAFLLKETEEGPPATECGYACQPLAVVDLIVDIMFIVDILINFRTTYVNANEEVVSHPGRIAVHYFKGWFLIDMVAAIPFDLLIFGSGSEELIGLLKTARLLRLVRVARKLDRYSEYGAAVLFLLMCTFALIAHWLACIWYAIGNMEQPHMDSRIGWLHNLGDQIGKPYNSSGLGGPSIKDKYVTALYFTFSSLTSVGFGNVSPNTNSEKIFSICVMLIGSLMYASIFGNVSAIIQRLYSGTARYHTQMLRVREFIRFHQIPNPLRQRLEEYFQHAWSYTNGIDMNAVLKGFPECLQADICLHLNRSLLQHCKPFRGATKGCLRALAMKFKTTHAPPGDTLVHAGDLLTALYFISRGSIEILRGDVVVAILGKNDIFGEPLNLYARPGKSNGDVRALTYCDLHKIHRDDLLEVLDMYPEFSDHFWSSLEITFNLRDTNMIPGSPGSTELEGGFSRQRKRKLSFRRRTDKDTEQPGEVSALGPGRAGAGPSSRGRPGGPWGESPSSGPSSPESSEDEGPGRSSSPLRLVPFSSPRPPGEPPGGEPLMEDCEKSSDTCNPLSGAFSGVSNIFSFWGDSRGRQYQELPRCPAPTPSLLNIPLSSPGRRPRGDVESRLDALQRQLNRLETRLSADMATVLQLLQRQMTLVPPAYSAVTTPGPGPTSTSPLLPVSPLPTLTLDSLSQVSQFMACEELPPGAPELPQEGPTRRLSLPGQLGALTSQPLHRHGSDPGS
smiles,measurement,setting,value
CCN(C(=O)c1cc(C(C)C)c(O)cc1O)c1cccnc1,inhibition,Heat shock protein HSP90,Dose-Dependent Effect
same,clearance,[1],73.2 mL/min/kg
same,AUCt,[2],737 ng·h/mL
same,IC50,Cytochrome P450 2D6,> 50 µM
same,AUC,[3],456 ng·h/mL
same,"inhibition at 1 h, 10 µM",hERG (KCNH2),-18%
same,inhibition at 50 µM,CYP2C8,54.3%
same,AUCt,[4],487 ng·h/mL
same,Activity,A549,Active
